Measurements taken from paper PMC6731595, “The anti-parasitic agent suramin and several of its analogues are inhibitors of the DNA binding protein Mcm10” (Open Biology, 2019).
{FAM} = 6-carboxyfluorescein (6FAM) label

How the values were obtained:
[1] = target: T1, human RPA70AB (Homo sapiens, UniProt P27694); assay: FP saturation binding of probe to RPA70AB; conditions: probe 12.5 nM, mean ± SEM, n = 3, listed as 5′-6FAM DNA probe
T1 construct: recombinant human RPA70AB (181-422) in a pSV281 vector; 6xHis (TEV site) (N, cleaved yes); made in house; host or cells: Escherichia coli BL21(DE3)
Method: (§1) The LOPAC pilot screen identified the sulfhydryl reagent 4-chloromercuribenzoic acid as an inhibitor in the fluorescence polarization (FP) assay. As there was no known Mcm10 inhibitor, 4-chloromercuribenzoic acid (30 μM) was used as a positive control on initial screening plates. Following the discovery of suramin as a Mcm10 inhibitor, suramin (7 μM) was used as a positive control on subsequent screening plates. To confirm activity, screening hits were tested in dose response experiments (8 concentrations in duplicate) using xMcm10-ID. Similar dose response experiments were conducted with suramin and its analogs to confirm activity for hMcm10-ID (1 μM) and xMcm10-FL (2 μM) and to determine selectivity relative to RPA70AB (0.4 μM). […] FP was measured in mP units, and ∆mP values for each well were calculated as the difference between the measured mP and the average of the “probe only” controls. […] The parallel and perpendicular mP values were also used to calculate total fluorescence intensity (TFI) determined by the sum of parallel mP + (2 x perpendicular mP). TFI was used to detect fluorescence interference by compounds [1]. […] IC50 values were calculated using the four parameter logistic equation in Prism 6.0 (GraphPad). […] KD values were calculated using the one site or two site binding equations in Prism 6.0 (GraphPad). […]

[2] = target: T2, hMcm10-ID (Homo sapiens, UniProt Q7L590); assay: FP saturation binding of probe to hMcm10-ID; conditions: probe 12.5 nM, mean ± SEM, n = 3
T2 construct: hMcm10-ID (residues 237 to 436) were expressed in E. coli strain BL21(DE3); 6xHis (HRV 3C site) (N, cleaved yes); made in house; host or cells: E. coli BL21(DE3)
T2 sequence (Q7L590 237-436): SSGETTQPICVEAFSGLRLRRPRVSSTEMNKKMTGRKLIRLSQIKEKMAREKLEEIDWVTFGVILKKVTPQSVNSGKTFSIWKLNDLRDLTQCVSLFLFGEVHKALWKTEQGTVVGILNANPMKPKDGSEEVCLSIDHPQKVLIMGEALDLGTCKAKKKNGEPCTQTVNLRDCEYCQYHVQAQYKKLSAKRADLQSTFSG
Method: as §1

T1 sequence (P27694 181-422): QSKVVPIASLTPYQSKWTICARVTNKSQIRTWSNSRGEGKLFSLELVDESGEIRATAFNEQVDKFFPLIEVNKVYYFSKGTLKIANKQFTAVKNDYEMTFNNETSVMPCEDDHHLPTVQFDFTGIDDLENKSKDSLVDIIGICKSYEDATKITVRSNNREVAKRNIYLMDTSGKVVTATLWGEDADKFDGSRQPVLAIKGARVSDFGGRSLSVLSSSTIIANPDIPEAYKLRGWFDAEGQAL

5′-6-FAM-ATGGTAGGCA (DNA, 5' {FAM}, backbone and methylation of C not given here) [5’-6-FAM 10-mer ssDNA, 5′-6-carboxyfluorescein 10-mer DNA FP probe]
Kd [1]: 400 nM
KD of FP probe for hMcm10-ID [2]: low micromolar affinity
